Publication PMC7999549, “PBP4 Is Likely Involved in Cell Division of the Longitudinally Dividing Bacterium Candidatus Thiosymbion Oneisti” (Antibiotics, 2021)

What was measured:
PBP4^TO [1] = target: T1, PBP4^TO (Candidatus Thiosymbion oneisti, UniProt Z9LUN3GEC2); assay: Bocillin-FL labelling, SDS-PAGE fluorescence; format: binding; design: His-tagged, expressed in cytoplasm of E. coli SF100 (plasmid pJW06, pET302 vector named); gene 1245 nt, 414 aa; dimers and higher oligomers on native PAGE; settings: pH 7.5, 50 mM NaCl, 10 mM MgCl2, 28 °C, 30 min; covalent
T1 sequence (Z9LUN3GEC2 31-414 limits assumed): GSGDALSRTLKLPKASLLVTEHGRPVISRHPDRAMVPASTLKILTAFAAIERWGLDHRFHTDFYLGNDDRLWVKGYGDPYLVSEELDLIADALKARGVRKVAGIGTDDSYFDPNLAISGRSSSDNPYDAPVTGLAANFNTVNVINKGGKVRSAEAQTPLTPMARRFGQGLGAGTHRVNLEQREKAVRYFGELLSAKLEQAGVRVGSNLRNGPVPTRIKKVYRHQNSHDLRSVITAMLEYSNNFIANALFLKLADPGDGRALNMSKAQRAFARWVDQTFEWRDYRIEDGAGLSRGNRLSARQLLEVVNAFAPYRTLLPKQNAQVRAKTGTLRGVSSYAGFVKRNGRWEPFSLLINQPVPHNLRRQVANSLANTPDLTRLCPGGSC

PBP4^TO [2] = target: T1, PBP4^TO; assay: Bocillin-FL competition, SDS-PAGE fluorescence; settings: pH 7.5, 50 mM NaCl, 10 mM MgCl2, 28 °C, 20 min before 15 μg/mL Bocillin-FL (30 min)

For `CC1=CC(C)=[N+]2C1=Cc1ccc(CCC(=O)Nc3ccc(OCC(=O)N[C@@H]4C(=O)N5[C@@H]4SC(C)(C)[C@@H]5C(=O)O)cc3)n1[B-]2(F)F` [Bocillin-FL], the “Bocillin-FL labelling, SDS-PAGE fluorescence” value (PBP4^TO [1]) was “Purified PBP4^TO protein was detectable after Bocillin-FL labeling”.
`NC(=O)c1cc[n+](CC2=C(C(=O)[O-])N3C(=O)[C@@H](NC(=O)[C@@H](c4ccccc4)S(=O)(=O)O)[C@H]3SC2)cc1` [cefsulodin] was tested, and the “Bocillin-FL competition, SDS-PAGE fluorescence” value (from here on “Bocillin-FL competition”) (PBP4^TO [2]; weak binder) was “cefsulodin, PBP2 inhibitor mecillinam, PBP4 inhibitor cephalexin”.
`CC1(C)S[C@@H]2[C@H](N=CN3CCCCCC3)C(=O)N2[C@H]1C(=O)O` [mecillinam] was tested, and the “Bocillin-FL competition” value (PBP4^TO [2]; weak binder) was “PBP2 inhibitor mecillinam, PBP4 inhibitor cephalexin”.
`C[C@@H](O)[C@H]1C(=O)N2C(C(=O)O)=C(S[C@@H]3CN[C@H](C(=O)N(C)C)C3)[C@H](C)[C@H]12` [meropenem] was tested, and the “Bocillin-FL competition” value (PBP4^TO [2]; possible allosteric second site at high concentration) was “does present some affinity for PBP4^TO, whereas Bocillin-FL intensity is enhanced with high-concentration treatment”.
For `CC1(C)S[C@@H]2[C@H](NC(=O)Cc3ccccc3)C(=O)N2[C@H]1C(=O)O` [penicillin G], the “Bocillin-FL competition” value (PBP4^TO [2]) was “penicillin G had a similar affinity for PBP4^TO as for PBP4^EC”.
